The structures appear in SMILES notation. Where a SMILES comes first, the peptide text is derived from it. Bridges are numbered along the chain shown (N, C = ends). [ ]: non-standard residue; d: D form. hArg = N=C(N)NCCCC[C@H](N)C(=O)O; Mpa = O=C(O)CCS

Consider four molecules from paper PMC6013791 (Chemical Science, 2016).

The target in assay [1] is T1, CXCR4 (Homo sapiens, UniProt P61073). The experiment in a line: Ligand efficiency from ChEMBL19 CXCR4 ligand data. Particulars: LE = 1.4pAffinity/nheavy_atoms, from ChEMBL19 CXCR4 data ref 28.
Assay [2] concerns the target T1, CXCR4. The note with it: cited from earlier work.
Assay [3] has as its target T1, CXCR4. Kind of assay: CXCR4 arrestin assay. Particulars: 30 μM, exploitive and hit expansion iterations. The format is cell-based.

T1 sequence (P61073 whole entry): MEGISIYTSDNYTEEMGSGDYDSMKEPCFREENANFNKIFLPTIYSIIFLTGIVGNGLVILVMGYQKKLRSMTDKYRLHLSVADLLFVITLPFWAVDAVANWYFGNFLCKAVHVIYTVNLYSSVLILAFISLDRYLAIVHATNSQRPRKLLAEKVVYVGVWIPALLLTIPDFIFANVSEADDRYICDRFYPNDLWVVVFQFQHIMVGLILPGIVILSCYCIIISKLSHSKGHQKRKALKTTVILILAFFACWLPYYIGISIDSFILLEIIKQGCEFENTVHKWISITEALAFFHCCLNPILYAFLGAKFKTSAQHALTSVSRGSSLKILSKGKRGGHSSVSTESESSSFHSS

`c1cc2nc(c1)CCNCCN(Cc1ccc(CN3CCNCCc4cccc(n4)CCNCC3)cc1)CCNCC2` [CHEMBL1202231]: the “ligand efficiency (LE)” value at CXCR4 [1] is 0.32.

For `c1ccc(NCc2ccc(CNc3ccccn3)cc2)nc1` [ChEMBL237830], the “ligand efficiency (LE)” value at CXCR4 [1] amounted to 0.56.

As a reminder, the EC50 is the concentration at which the effect is half-maximal. Regarding `C[C@H](NC(=O)[C@H](CCCN=C(N)N)NC(=O)c1ccc(CNCc2ccccn2)cc1)c1cccc2ccccc12` [KRH-1636], the EC50 on CXCR4 [2] is 18 nM.

Consider `N=C(N)NCCCC[C@@H]1NC(=O)CCSSC[C@@H](C(N)=O)NC(=O)[C@@H]2CCCN2C(=O)[C@H](Cc2c[nH]c3ccccc23)NC(=O)[C@H](CC(=O)O)NC(=O)CNC1=O` [integrilin] ([Mpa][hArg]GDWPC-NH2; disulfide 1-7 (inferred)), for which the “activity in the arrestin assay” value on CXCR4 [3] is “lack of activity”.
